{"source": "paper PMC6136660", "about": "(Steroids, 2018)", "key": {"[1]": {"experiment": "Phase 1 single ascending dose (SAD) pharmacokinetics, fasted", "type": "in vivo, human", "conditions": "for Vd/F: read-out: Vz/F; for k el: read-out: λz (converted)", "protocol": "This clinical trial was a randomized, double-blind, placebo controlled single ascending (SAD) and multiple ascending (MAD) study to evaluate the safety, tolerability, and pharmacokinetics of vamorolone in health adult subjects. The study protocol and its amendments were reviewed and approved by an Institutional Review Board. It was conducted in accordance with the principles of the Declaration of Helsinki in place at the time of study conduct and in compliance with the International Council on Harmonisation (ICH) E6 Guideline for Good Clinical Practice.\nIn the SAD part of the study, 7 cohorts were to be enrolled. Eight subjects were assigned to each of Cohorts 1 to 5 and 7 and received a single oral dose of vamorolone (planned as 0.1 mg/kg, 0.3 mg/kg, 1.0 mg/kg, 3.0 mg/kg, 8.0 mg/kg, and 20.0 mg/kg, respectively) or placebo under fasted conditions. Six subjects were assigned to Cohort 6 and were administered a single oral dose of 8.0 mg/kg vamorolone within 30 min of beginning a high fat/high calorie meal.\nSubjects in Cohorts 1 through 5 and 7 were randomized to receive vamorolone or placebo in a 3:1 ratio (6 subjects received vamorolone, and 2 subjects received placebo) sequentially. In Cohort 1, 3 sentinel subjects were administered vamorolone or placebo in a 2:1 ratio. Following a review of sentinel safety and tolerability data (including reported adverse events [AEs], clinical laboratory tests, vital signs, and electrocardiograms [ECGs]), the remaining 5 subjects were randomized to receive vamorolone or placebo in a 4:1 ratio and dosed no earlier than 48 h after sentinel dosing. In Cohorts 2 to 5, and 7, subjects were administered vamorolone or placebo in a 3:1 ratio. Once Cohort 5 was completed and safety data had been reviewed, subjects in Cohort 6 were administered a single oral dose of 8.0 mg/kg vamorolone within 30 min of beginning a standard high fat/high calorie meal.\nThe initial starting dose for the vamorolone SAD study was chosen based on 10% of the NOAEL in the most sensitive species (mouse) (0.1 mg/kg). Doses were then escalated by 3-fold increments for 6 dose groups (0.1, 0.3, 1.0, 3.0, 9.0, 20.0 mg/kg). Eight adult male volunteers were studied in each dose group (6 drug-treated, 2 placebo)."}, "[2]": {"experiment": "Clinical safety (treatment-emergent adverse events, MTD, NOAEL), MAD", "type": "in vivo", "protocol": "The MAD part of the study was initiated after a review of safety and PK data from SAD cohorts 1 to 6. In the MAD part, 4 cohorts containing 8 subjects each were randomized to receive vamorolone or placebo, in a 3:1 ratio, once daily (QD) for 14 days. The duration of dosing in the MAD part was determined based on the PK data from the SAD part. In each cohort, 3 sentinel subjects were administered vamorolone or placebo, in a 2:1 ratio.\nAfter completion of all scheduled safety follow-up visits for a given cohort, the SRC reviewed all available PK and safety data (AEs, physical examination findings, ECGs, vital signs, and clinical laboratory tests) in a blinded manner for the completed cohort prior to making a decision to escalate to the next higher dose level.\nDose escalation in the MAD part was to proceed according to protocol until the MTD was identified. The dose escalation stopping criteria, as listed above in the SAD section, comprised the halting rules for the MAD part. If any of these criteria were met during the 14-day dosing duration in the MAD part, dosing in that cohort was to be halted and no further dose escalation was to occur. If AEs/SAEs occurred more frequently in subjects treated with vamorolone compared to subjects treated with placebo, the SRC was to determine if dose escalation could continue. If dose escalation was terminated, the remaining cohorts could be enrolled to evaluate the safety and PK effects of vamorolone for dose levels between the previously tolerated dose and the dose level at which dose escalation was terminated. Once safety data from additional cohort(s) was assessed, the MTD was defined as the dose level below the dose at which the SRC determined there was an unacceptable risk to subjects."}, "[3]": {"conditions": "male, human, plasma, single oral 0.1 mg/kg, fasted, geometric mean (%CV)"}, "[4]": {"conditions": "male, human, plasma, single oral 0.3 mg/kg, fasted, geometric mean (%CV)"}, "[5]": {"conditions": "male, human, plasma, single oral 1 mg/kg, fasted, geometric mean (%CV)"}, "[6]": {"conditions": "male, human, plasma, single oral 3 mg/kg, fasted, geometric mean (%CV)"}, "[7]": {"conditions": "male, human, plasma, single oral 8 mg/kg, fasted, geometric mean (%CV)"}, "[8]": {"conditions": "male, human, plasma, single oral 20 mg/kg, fasted, geometric mean (%CV)"}}, "note": "Read-outs that look alike come from different tables or passages of the source.", "data": [{"smiles": "C[C@@H]1C[C@H]2[C@@H]3CCC4=CC(=O)C=C[C@]4(C)C3=CC[C@]2(C)[C@@]1(O)C(=O)CO", "note": "[vamorolone]", "values": [{"measurement": "slope of log plot of AUC(inf) vs dose", "setting": "[1]; SAD 0.1-20 mg/kg", "value": "~1.0"}, {"measurement": "slope of log plot of Cmax vs dose", "setting": "[1]; SAD 0.1-20 mg/kg", "value": "< 1.0"}, {"measurement": "CL/F", "setting": "[1]; male, human, plasma, oral, across single 0.1 to 20 mg/kg doses, fasted, read-out: CL/F, range of geometric mean values", "value": "29.3 to 38.5", "unit": "mL/min/kg"}, {"measurement": "half-life", "setting": "[1]; male, human, plasma, oral, healthy subjects, approximate overall, read-out: half-life (converted)", "value": "~3", "unit": "h"}, {"measurement": "AUC(0-inf)", "setting": "[1]; [3]", "value": 49.5, "unit": "ng·h/mL"}, {"measurement": "AUC(0-t)", "setting": "[1]; [3]", "value": 41.9, "unit": "ng·h/mL"}, {"measurement": "Cmax", "setting": "[1]; [3]", "value": 13.1, "unit": "ng/mL"}, {"measurement": "CL/F", "setting": "[1]; male, human, plasma, single oral 0.1 mg/kg, fasted, geometric mean (%CV), read-out: CL/F (converted)", "value": 33.7, "unit": "mL/min/kg"}, {"measurement": "Vd/F", "setting": "[1]; [3]", "value": 4.98, "unit": "L/kg"}, {"measurement": "half-life", "setting": "[1]; male, human, plasma, single oral 0.1 mg/kg, fasted, geometric mean (%CV), read-out: t½ (converted)", "value": 1.71, "unit": "h"}, {"measurement": "k el", "setting": "[1]; [3]", "value": 0.000113, "unit": "s⁻¹"}, {"measurement": "Tmax", "setting": "[1]; male, human, plasma, single oral 0.1 mg/kg, fasted, median, read-out: Tmax", "value": 1.5, "unit": "h"}, {"measurement": "AUC(0-inf)", "setting": "[1]; [4]", "value": 170, "unit": "ng·h/mL"}, {"measurement": "AUC(0-t)", "setting": "[1]; [4]", "value": 161, "unit": "ng·h/mL"}, {"measurement": "Cmax", "setting": "[1]; [4]", "value": 50.8, "unit": "ng/mL"}, {"measurement": "CL/F", "setting": "[1]; male, human, plasma, single oral 0.3 mg/kg, fasted, geometric mean (%CV), read-out: CL/F (converted)", "value": 29.3, "unit": "mL/min/kg"}, {"measurement": "Vd/F", "setting": "[1]; [4]", "value": 4.07, "unit": "L/kg"}, {"measurement": "half-life", "setting": "[1]; male, human, plasma, single oral 0.3 mg/kg, fasted, geometric mean (%CV), read-out: t½ (converted)", "value": 1.6, "unit": "h"}, {"measurement": "k el", "setting": "[1]; [4]", "value": 0.00012, "unit": "s⁻¹"}, {"measurement": "Tmax", "setting": "[1]; male, human, plasma, single oral 0.3 mg/kg, fasted, median, read-out: Tmax", "value": 1.5, "unit": "h"}, {"measurement": "AUC(0-inf)", "setting": "[1]; [5]", "value": 500, "unit": "ng·h/mL"}, {"measurement": "AUC(0-t)", "setting": "[1]; [5]", "value": 486, "unit": "ng·h/mL"}, {"measurement": "Cmax", "setting": "[1]; [5]", "value": 122, "unit": "ng/mL"}, {"measurement": "CL/F", "setting": "[1]; male, human, plasma, single oral 1 mg/kg, fasted, geometric mean (%CV), read-out: CL/F (converted)", "value": 33.3, "unit": "mL/min/kg"}, {"measurement": "Vd/F", "setting": "[1]; [5]", "value": 5.22, "unit": "L/kg"}, {"measurement": "half-life", "setting": "[1]; male, human, plasma, single oral 1 mg/kg, fasted, geometric mean (%CV), read-out: t½ (converted)", "value": 1.81, "unit": "h"}, {"measurement": "k el", "setting": "[1]; [5]", "value": 0.000106, "unit": "s⁻¹"}, {"measurement": "Tmax", "setting": "[1]; male, human, plasma, single oral 1 mg/kg, fasted, median, read-out: Tmax", "value": 1.75, "unit": "h"}, {"measurement": "AUC(0-inf)", "setting": "[1]; [6]", "value": 1600, "unit": "ng·h/mL"}, {"measurement": "AUC(0-t)", "setting": "[1]; [6]", "value": 1580, "unit": "ng·h/mL"}, {"measurement": "Cmax", "setting": "[1]; [6]", "value": 305, "unit": "ng/mL"}, {"measurement": "CL/F", "setting": "[1]; male, human, plasma, single oral 3 mg/kg, fasted, geometric mean (%CV), read-out: CL/F (converted)", "value": 31.3, "unit": "mL/min/kg"}, {"measurement": "Vd/F", "setting": "[1]; [6]", "value": 6.76, "unit": "L/kg"}, {"measurement": "half-life", "setting": "[1]; male, human, plasma, single oral 3 mg/kg, fasted, geometric mean (%CV), read-out: t½ (converted)", "value": 2.5, "unit": "h"}, {"measurement": "k el", "setting": "[1]; [6]", "value": "7.7e-05", "unit": "s⁻¹"}, {"measurement": "Tmax", "setting": "[1]; male, human, plasma, single oral 3 mg/kg, fasted, median, read-out: Tmax", "value": 1.75, "unit": "h"}, {"measurement": "AUC(0-inf)", "setting": "[1]; [7]", "value": 3600, "unit": "ng·h/mL"}, {"measurement": "AUC(0-t)", "setting": "[1]; [7]", "value": 4000, "unit": "ng·h/mL"}, {"measurement": "Cmax", "setting": "[1]; [7]", "value": 718, "unit": "ng/mL"}, {"measurement": "CL/F", "setting": "[1]; male, human, plasma, single oral 8 mg/kg, fasted, geometric mean (%CV), read-out: CL/F (converted)", "value": 37, "unit": "mL/min/kg"}, {"measurement": "Vd/F", "setting": "[1]; [7]", "value": 10.4, "unit": "L/kg"}, {"measurement": "half-life", "setting": "[1]; male, human, plasma, single oral 8 mg/kg, fasted, geometric mean (%CV), read-out: t½ (converted)", "value": 3.25, "unit": "h"}, {"measurement": "k el", "setting": "[1]; [7]", "value": "5.93e-05", "unit": "s⁻¹"}, {"measurement": "Tmax", "setting": "[1]; male, human, plasma, single oral 8 mg/kg, fasted, median, read-out: Tmax", "value": 1.78, "unit": "h"}, {"measurement": "AUC(0-inf)", "setting": "[1]; [8]", "value": 8650, "unit": "ng·h/mL"}, {"measurement": "AUC(0-t)", "setting": "[1]; [8]", "value": 8540, "unit": "ng·h/mL"}, {"measurement": "Cmax", "setting": "[1]; [8]", "value": 1650, "unit": "ng/mL"}, {"measurement": "CL/F", "setting": "[1]; male, human, plasma, single oral 20 mg/kg, fasted, geometric mean (%CV), read-out: CL/F (converted)", "value": 38.5, "unit": "mL/min/kg"}, {"measurement": "Vd/F", "setting": "[1]; [8]", "value": 14.2, "unit": "L/kg"}, {"measurement": "half-life", "setting": "[1]; male, human, plasma, single oral 20 mg/kg, fasted, geometric mean (%CV), read-out: t½ (converted)", "value": 4.26, "unit": "h"}, {"measurement": "k el", "setting": "[1]; [8]", "value": "4.52e-05", "unit": "s⁻¹"}, {"measurement": "Tmax", "setting": "[1]; male, human, plasma, single oral 20 mg/kg, fasted, median, read-out: Tmax", "value": 1.5, "unit": "h"}, {"measurement": "Tmax", "setting": "[1]; male, human, serum, oral suspension formulation (4% vamorolone by weight), read-out: time of peak serum concentrations", "value": "~3", "unit": "h"}, {"measurement": "CL/F", "setting": "[1]; single oral 0.1 mg/kg, fasted, geometric mean (%CV)", "value": "168 (20.8) (6) L/h"}, {"measurement": "CL/F", "setting": "[1]; single oral 0.3 mg/kg, fasted, geometric mean (%CV)", "value": "142 (14.4) (6) L/h"}, {"measurement": "CL/F", "setting": "[1]; single oral 1 mg/kg, fasted, geometric mean (%CV)", "value": "165 (12.0) (6) L/h"}, {"measurement": "CL/F", "setting": "[1]; single oral 3 mg/kg, fasted, geometric mean (%CV)", "value": "152 (18.5) (6) L/h"}, {"measurement": "CL/F", "setting": "[1]; single oral 8 mg/kg, fasted, geometric mean (%CV)", "value": "196 (57.6) (4) L/h"}, {"measurement": "CL/F", "setting": "[1]; single oral 20 mg/kg, fasted, geometric mean (%CV)", "value": "180 (29.8) (4) L/h"}, {"measurement": "subjects experiencing TEAEs", "setting": "[2]; MAD 1.0 mg/kg", "value": 2, "unit": "subjects"}, {"measurement": "subjects experiencing TEAEs", "setting": "[2]; MAD 3.0 mg/kg", "value": "none"}, {"measurement": "subjects experiencing TEAEs", "setting": "[2]; MAD 9.0 mg/kg", "value": "none"}, {"measurement": "subjects experiencing TEAEs", "setting": "[2]; MAD 20 mg/kg", "value": 2, "unit": "subjects"}, {"measurement": "maximum tolerated dose (MTD)", "setting": "[2]; MAD up to 20 mg/kg/day", "value": "not reached"}, {"measurement": "severe adverse events", "setting": "[2]; any SAD or MAD dose group", "value": "no severe adverse events"}, {"measurement": "NOAEL at 14 days", "setting": "[2]; human, in vivo, oral, highest dose tested, 14 days", "value": 20, "unit": "mg/kg/day"}, {"measurement": "liver finding thought to be drug related", "setting": "[2]; one subject, 20 mg/kg/day MAD cohort, dosing halted", "value": "mild elevations of liver enzymes"}]}]}
